# Data taken from article PMC6591251, “Discovery of potent necroptosis inhibitors targeting RIPK1 kinase activity for the treatment of inflammatory disorder and cancer metastasis” (Cell Death & Disease, 2019).
# Columns and labels:
# Test in all cases: RBC kinase panel
# Format in all cases: biochemical
# [1] = target: T1, JAK2 (Homo sapiens, UniProt O60674); conditions: ATP 10 μM, Data1, Data2
# T1 construct: purchased Reaction Biology Corporation
# In short: (§1)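 Using 10 μM ATP for every kinase, activity of 369 human kinases was measured in duplicate in the presence of 1 μM test compound.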
# [2] = target: T2, NEK8 (Homo sapiens, UniProt Q86SG6); conditions: ATP 10 μM, Data1, Data2
# T2 construct: purchased Reaction Biology Corporation
# T2 sequence (Q86SG6 whole entry): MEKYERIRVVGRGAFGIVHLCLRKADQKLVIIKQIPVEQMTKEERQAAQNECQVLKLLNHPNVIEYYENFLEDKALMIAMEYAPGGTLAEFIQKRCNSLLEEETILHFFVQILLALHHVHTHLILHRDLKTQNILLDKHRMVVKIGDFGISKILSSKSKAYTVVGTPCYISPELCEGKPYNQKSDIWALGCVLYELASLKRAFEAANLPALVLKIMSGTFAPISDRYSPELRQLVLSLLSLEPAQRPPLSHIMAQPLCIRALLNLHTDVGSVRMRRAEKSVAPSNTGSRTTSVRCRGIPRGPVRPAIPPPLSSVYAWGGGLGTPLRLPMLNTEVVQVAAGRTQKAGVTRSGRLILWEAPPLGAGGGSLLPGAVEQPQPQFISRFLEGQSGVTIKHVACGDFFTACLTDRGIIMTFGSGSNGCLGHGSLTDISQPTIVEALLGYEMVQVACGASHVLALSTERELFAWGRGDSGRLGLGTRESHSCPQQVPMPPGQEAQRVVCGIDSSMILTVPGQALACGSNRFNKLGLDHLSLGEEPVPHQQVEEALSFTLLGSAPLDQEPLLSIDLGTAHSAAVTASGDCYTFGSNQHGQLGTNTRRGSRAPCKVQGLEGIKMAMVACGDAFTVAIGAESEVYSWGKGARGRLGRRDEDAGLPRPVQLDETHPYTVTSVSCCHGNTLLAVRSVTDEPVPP
# In short: as §1
# [3] = target: T3, SYK (Homo sapiens, UniProt P43405); conditions: ATP 10 μM, Data1, Data2
# T3 construct: purchased Reaction Biology Corporation
# In short: as §1
# [4] = target: T4, ALK2/ACVR1 (Homo sapiens, UniProt Q04771); conditions: ATP 10 μM, Data1, Data2
# T4 construct: purchased Reaction Biology Corporation
# In short: as §1
# [5] = target: T5, IKKa/CHUK (Homo sapiens, UniProt O15111); conditions: ATP 10 μM, Data1, Data2
# T5 construct: purchased Reaction Biology Corporation
# In short: as §1
# [6] = target: T6, CDK1/cyclin A (Homo sapiens, UniProt P06493); conditions: ATP 10 μM, Data1, Data2
# T6 construct: purchased Reaction Biology Corporation
# T6 sequence (P06493 whole entry): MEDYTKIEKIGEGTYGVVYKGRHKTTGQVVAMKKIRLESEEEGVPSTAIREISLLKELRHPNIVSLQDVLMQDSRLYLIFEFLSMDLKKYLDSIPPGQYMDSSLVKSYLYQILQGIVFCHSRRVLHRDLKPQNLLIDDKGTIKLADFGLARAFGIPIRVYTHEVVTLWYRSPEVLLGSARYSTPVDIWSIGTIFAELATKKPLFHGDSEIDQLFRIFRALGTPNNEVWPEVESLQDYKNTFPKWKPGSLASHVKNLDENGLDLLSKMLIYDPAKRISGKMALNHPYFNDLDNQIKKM
# T6 sequence (P20248 whole entry partner): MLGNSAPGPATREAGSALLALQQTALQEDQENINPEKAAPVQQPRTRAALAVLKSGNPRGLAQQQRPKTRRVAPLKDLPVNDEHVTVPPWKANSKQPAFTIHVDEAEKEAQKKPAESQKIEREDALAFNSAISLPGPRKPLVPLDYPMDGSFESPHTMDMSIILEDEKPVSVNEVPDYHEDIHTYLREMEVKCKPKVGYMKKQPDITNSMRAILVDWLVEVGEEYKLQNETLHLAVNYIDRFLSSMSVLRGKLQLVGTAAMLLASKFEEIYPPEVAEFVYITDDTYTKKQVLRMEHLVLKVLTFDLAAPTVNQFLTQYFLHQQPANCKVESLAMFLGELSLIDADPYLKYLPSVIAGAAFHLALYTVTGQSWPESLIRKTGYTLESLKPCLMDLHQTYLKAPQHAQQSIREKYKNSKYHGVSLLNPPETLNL
# In short: as §1
# [7] = target: T7, TYRO3/SKY (Homo sapiens, UniProt Q06418); conditions: ATP 10 μM, Data1, Data2
# T7 construct: purchased Reaction Biology Corporation
# In short: as §1
# [8] = target: T8, RSK4 (Homo sapiens, UniProt Q9UK32); conditions: ATP 10 μM, Data1, Data2
# T8 construct: purchased Reaction Biology Corporation
# In short: as §1
# [9] = target: T9, PKN2/PRK2 (Homo sapiens, UniProt Q16513); conditions: ATP 10 μM, Data1, Data2
# T9 construct: purchased Reaction Biology Corporation
# In short: as §1
# [10] = target: T10, LYN B (Homo sapiens, UniProt P07948); conditions: ATP 10 μM, Data1, Data2
# T10 construct: purchased Reaction Biology Corporation
# T10 sequence (P07948 1-491 isoform P07948-2): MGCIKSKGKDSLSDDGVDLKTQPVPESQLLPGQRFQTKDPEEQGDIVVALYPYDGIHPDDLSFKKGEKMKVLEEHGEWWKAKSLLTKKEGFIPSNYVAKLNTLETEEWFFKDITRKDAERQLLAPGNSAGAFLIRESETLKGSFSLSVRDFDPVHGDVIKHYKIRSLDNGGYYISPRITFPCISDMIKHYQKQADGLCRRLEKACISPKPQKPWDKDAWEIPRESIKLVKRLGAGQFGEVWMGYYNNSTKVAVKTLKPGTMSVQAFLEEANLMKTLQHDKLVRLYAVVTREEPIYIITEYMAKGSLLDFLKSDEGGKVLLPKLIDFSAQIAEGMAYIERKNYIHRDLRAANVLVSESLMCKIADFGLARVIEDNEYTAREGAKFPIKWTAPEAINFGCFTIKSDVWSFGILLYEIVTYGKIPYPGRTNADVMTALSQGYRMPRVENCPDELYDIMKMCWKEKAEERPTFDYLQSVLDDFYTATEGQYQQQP
# In short: as §1
# [11] = target: T11, CDK5/p35 (Homo sapiens, UniProt Q00535); conditions: ATP 10 μM, Data1, Data2
# T11 construct: purchased Reaction Biology Corporation
# T11 sequence (Q00535 whole entry): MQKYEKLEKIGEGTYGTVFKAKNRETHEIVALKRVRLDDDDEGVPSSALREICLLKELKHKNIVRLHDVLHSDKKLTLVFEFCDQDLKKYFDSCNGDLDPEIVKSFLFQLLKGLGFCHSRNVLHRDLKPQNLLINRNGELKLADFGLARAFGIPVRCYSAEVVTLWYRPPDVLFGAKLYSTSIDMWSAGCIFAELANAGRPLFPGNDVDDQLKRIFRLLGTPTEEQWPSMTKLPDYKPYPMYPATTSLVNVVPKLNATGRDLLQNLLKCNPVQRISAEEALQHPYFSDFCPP
# T11 sequence (Q15078 whole entry partner): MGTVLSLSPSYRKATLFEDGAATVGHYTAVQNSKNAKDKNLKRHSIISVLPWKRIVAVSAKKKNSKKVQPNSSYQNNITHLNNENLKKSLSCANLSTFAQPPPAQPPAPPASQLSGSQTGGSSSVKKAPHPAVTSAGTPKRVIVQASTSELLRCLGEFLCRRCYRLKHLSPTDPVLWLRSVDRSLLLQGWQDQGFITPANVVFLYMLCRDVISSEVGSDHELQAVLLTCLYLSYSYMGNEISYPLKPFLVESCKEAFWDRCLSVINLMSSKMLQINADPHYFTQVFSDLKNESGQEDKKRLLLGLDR
# In short: as §1
# [12] = target: T12, CDK1/cyclin E (Homo sapiens, UniProt P06493); conditions: ATP 10 μM, Data1, Data2
# T12 construct: purchased Reaction Biology Corporation
# T12 sequence (P06493 whole entry): as the sequence (P06493 whole entry) above
# T12 sequence (P24864 whole entry partner): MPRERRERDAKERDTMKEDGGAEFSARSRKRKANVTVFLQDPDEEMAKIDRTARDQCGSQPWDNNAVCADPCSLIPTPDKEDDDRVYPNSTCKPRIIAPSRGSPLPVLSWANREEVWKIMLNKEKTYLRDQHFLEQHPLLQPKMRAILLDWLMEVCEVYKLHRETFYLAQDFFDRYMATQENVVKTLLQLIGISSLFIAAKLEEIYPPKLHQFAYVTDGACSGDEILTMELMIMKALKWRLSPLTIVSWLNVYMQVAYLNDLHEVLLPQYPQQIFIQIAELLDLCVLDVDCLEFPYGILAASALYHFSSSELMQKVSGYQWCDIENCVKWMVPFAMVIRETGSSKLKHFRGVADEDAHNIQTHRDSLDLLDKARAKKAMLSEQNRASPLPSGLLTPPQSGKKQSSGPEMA
# In short: as §1
# [13] = target: T13, ULK3 (Homo sapiens, UniProt Q6PHR2); conditions: ATP 10 μM, Data1, Data2
# T13 construct: purchased Reaction Biology Corporation
# In short: as §1
# [14] = target: T14, RIPK3 (Homo sapiens, UniProt Q9Y572); conditions: ATP 10 μM, Data1, Data2
# T14 construct: purchased Reaction Biology Corporation
# In short: as §1
# [15] = target: T15, SGK1 (Homo sapiens, UniProt O00141); conditions: ATP 10 μM, Data1, Data2
# T15 construct: purchased Reaction Biology Corporation
# In short: as §1
# [16] = target: T16, BRSK2 (Homo sapiens, UniProt Q8IWQ3); conditions: ATP 10 μM, Data1, Data2
# T16 construct: purchased Reaction Biology Corporation
# In short: as §1
# [17] = target: T17, IGF1R (Homo sapiens, UniProt P08069); conditions: ATP 10 μM, Data1, Data2
# T17 construct: purchased Reaction Biology Corporation
# In short: as §1
# [18] = target: T18, ZIPK/DAPK3 (Homo sapiens, UniProt O43293); conditions: ATP 10 μM, Data1, Data2
# T18 construct: purchased Reaction Biology Corporation
# In short: as §1
# [19] = target: T19, CTK/MATK (Homo sapiens, UniProt P42679); conditions: ATP 10 μM, Data1, Data2
# T19 construct: purchased Reaction Biology Corporation
# In short: as §1
# [20] = target: T20, MEK3 (Homo sapiens, UniProt P46734); conditions: ATP 10 μM, Data1, Data2
# T20 construct: purchased Reaction Biology Corporation
# T20 sequence (P46734 whole entry): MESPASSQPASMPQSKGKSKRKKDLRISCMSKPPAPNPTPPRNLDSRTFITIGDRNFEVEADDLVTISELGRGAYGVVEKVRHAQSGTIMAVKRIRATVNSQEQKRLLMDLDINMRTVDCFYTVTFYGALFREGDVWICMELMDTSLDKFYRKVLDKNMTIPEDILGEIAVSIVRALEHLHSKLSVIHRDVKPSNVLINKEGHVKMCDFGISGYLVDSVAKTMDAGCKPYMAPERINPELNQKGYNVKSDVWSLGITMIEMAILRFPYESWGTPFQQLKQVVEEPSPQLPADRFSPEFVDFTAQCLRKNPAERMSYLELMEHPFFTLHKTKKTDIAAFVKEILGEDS
# In short: as §1
# [21] = target: T21, LRRK2 (Homo sapiens, UniProt Q5S007); conditions: ATP 10 μM, Data1, Data2
# T21 construct: purchased Reaction Biology Corporation
# In short: as §1
# [22] = target: T22, CAMK1d (Homo sapiens, UniProt Q8IU85); conditions: ATP 10 μM, Data1, Data2
# T22 construct: purchased Reaction Biology Corporation
# T22 sequence (Q8IU85 whole entry): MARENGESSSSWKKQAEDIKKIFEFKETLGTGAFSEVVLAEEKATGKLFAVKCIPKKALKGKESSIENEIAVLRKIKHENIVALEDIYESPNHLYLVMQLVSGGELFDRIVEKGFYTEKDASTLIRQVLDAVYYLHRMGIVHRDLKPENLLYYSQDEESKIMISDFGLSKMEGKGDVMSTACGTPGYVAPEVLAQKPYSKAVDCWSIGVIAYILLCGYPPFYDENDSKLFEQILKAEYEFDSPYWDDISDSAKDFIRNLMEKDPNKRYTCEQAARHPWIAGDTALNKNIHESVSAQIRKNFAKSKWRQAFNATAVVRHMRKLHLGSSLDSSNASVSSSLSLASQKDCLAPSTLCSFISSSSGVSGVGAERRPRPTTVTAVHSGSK
# In short: as §1
# [23] = target: T23, JNK2 (Homo sapiens, UniProt P45984); conditions: ATP 10 μM, Data1, Data2
# T23 construct: purchased Reaction Biology Corporation
# In short: as §1
# [24] = target: T24, TRKB (Homo sapiens, UniProt Q16620)
# T24 construct: purchased Reaction Biology Corporation
# T24 sequence (Q16620 32-822): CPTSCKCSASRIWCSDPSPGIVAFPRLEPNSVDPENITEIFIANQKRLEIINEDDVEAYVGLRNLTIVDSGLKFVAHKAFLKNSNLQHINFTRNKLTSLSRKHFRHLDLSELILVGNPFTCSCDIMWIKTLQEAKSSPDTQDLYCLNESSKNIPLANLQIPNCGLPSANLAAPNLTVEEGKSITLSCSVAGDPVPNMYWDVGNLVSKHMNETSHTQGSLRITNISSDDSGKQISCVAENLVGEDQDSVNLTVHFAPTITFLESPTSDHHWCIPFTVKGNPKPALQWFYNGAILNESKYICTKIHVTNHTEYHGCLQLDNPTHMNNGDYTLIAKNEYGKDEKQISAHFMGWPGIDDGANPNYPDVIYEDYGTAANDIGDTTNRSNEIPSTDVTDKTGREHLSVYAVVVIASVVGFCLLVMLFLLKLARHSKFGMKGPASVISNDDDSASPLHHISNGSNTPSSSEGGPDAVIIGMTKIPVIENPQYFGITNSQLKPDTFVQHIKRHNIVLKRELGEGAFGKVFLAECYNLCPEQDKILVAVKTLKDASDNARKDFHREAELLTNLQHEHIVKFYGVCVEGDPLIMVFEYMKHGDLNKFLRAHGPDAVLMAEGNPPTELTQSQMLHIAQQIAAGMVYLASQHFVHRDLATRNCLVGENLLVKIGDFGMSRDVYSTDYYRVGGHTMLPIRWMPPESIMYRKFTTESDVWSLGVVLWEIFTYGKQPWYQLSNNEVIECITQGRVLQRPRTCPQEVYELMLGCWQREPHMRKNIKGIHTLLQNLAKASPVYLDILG
# In short: as §1
# [25] = target: T25, MLK3/MAP3K11 (Homo sapiens, UniProt Q16584); conditions: ATP 10 μM, Data1, Data2
# T25 construct: purchased Reaction Biology Corporation
# In short: as §1
# [26] = target: T26, FLT4/VEGFR3 (Homo sapiens, UniProt P35916); conditions: ATP 10 μM, Data1, Data2
# T26 construct: purchased Reaction Biology Corporation
# In short: as §1
# [27] = target: T27, DDR1 (Homo sapiens, UniProt Q08345); conditions: ATP 10 μM, Data1, Data2
# T27 construct: purchased Reaction Biology Corporation
# In short: as §1
# [28] = target: T28, CDK9/cyclin T1 (Homo sapiens, UniProt P50750); conditions: ATP 10 μM, Data1, Data2
# T28 construct: purchased Reaction Biology Corporation
# In short: as §1
# [29] = target: T29, SRMS (Homo sapiens, UniProt Q9H3Y6); conditions: ATP 10 μM, Data1, Data2
# T29 construct: purchased Reaction Biology Corporation
# In short: as §1
# [30] = target: T30, MEK2 (Homo sapiens, UniProt P36507); conditions: ATP 10 μM, Data1, Data2
# T30 construct: purchased Reaction Biology Corporation
# In short: as §1
# [31] = target: T31, SBK1 (Homo sapiens, UniProt Q52WX2); conditions: ATP 10 μM, Data1, Data2
# T31 construct: purchased Reaction Biology Corporation
# In short: as §1
# [32] = target: T32, RIPK4 (Homo sapiens, UniProt P57078); conditions: ATP 10 μM, Data1, Data2
# T32 construct: purchased Reaction Biology Corporation
# In short: as §1
# [33] = target: T33, CDK19/cyclin C (Homo sapiens, UniProt Q9BWU1); conditions: ATP 10 μM, Data1, Data2
# T33 construct: purchased Reaction Biology Corporation
# In short: as §1
compound,measurement,setting,value
"CC(=O)Nc1nc2ccc(-c3cnc(C)c(NC(=O)OC4CCCCC4)c3)cc2s1 [PK68, cyclohexyl (5-(2-acetamidobenzo[d]thiazol-6-yl)-2-methylpyridin-3-yl)carbamate]",Activity%,[1]; 1 μM,96.04%
same,activity at 1 µM,[1],98.2%
same,Activity%,[2]; 1 μM,79.27%
same,activity at 1 µM,[2],79.9%
same,Activity%,[3]; 1 μM,98.85%
same,activity at 1 µM,[3],99.5%
same,Activity%,[4]; 1 μM,101.72%
same,activity at 1 µM,[4],103%
same,Activity%,[5]; 1 μM,107.86%
same,activity at 1 µM,[5],117%
same,Activity%,[6]; 1 μM,96.92%
same,activity at 1 µM,[6],97.2%
same,Activity%,[7]; 1 μM,97.95%
same,activity at 1 µM,[7],99.6%
same,Activity%,[8]; 1 μM,103.68%
same,activity at 1 µM,[8],105%
same,Activity%,[9]; 1 μM,62.44%
same,activity at 1 µM,[9],62.6%
same,Activity%,[10]; 1 μM,97.70%
same,activity at 1 µM,[10],98%
same,Activity%,[11]; 1 μM,100.63%
same,activity at 1 µM,[11],102%
same,Activity%,[12]; 1 μM,101.92%
same,activity at 1 µM,[12],102%
same,Activity%,[13]; 1 μM,92.16%
same,activity at 1 µM,[13],92.9%
same,Activity%,[14]; 1 μM,104.99%
same,activity at 1 µM,[14],106%
same,Activity%,[15]; 1 μM,93.47%
same,activity at 1 µM,[15],93.8%
same,Activity%,[16]; 1 μM,98.88%
same,activity at 1 µM,[16],100%
same,Activity%,[17]; 1 μM,103.88%
same,activity at 1 µM,[17],104%
same,Activity%,[18]; 1 μM,98.55%
same,activity at 1 µM,[18],100%
same,Activity%,[19]; 1 μM,93.51%
same,activity at 1 µM,[19],93.8%
same,Activity%,[20]; 1 μM,99.61%
same,activity at 1 µM,[20],99.7%
same,Activity%,[21]; 1 μM,66.88%
same,activity at 1 µM,[21],67.7%
same,Activity%,[22]; 1 μM,100.76%
same,activity at 1 µM,[22],103%
same,Activity%,[23]; 1 μM,101.11%
same,activity at 1 µM,[23],104%
same,Activity%,"[24]; 1 μM, ATP 10 μM, Data1, Data2",41.21%
same,activity at 1 µM,"[24]; 1 μM, ATP 10 μM, Data1, Data2",41.2%
same,inhibition at 1 µM,[24]; at 1000 nM,> 50%
same,Activity%,[25]; 1 μM,82.77%
same,activity at 1 µM,[25],82.9%
same,Activity%,[26]; 1 μM,90.37%
same,activity at 1 µM,[26],91%
same,Activity%,[27]; 1 μM,80.91%
same,activity at 1 µM,[27],81.7%
same,Activity%,[28]; 1 μM,110.56%
same,activity at 1 µM,[28],111%
same,Activity%,[29]; 1 μM,97.95%
same,activity at 1 µM,[29],99.7%
same,Activity%,[30]; 1 μM,97.14%
same,activity at 1 µM,[30],97.2%
same,Activity%,[31]; 1 μM,102.75%
same,activity at 1 µM,[31],104%
same,Activity%,[32]; 1 μM,92.60%
same,activity at 1 µM,[32],94.5%
same,Activity%,[33]; 1 μM,99.34%
same,activity at 1 µM,[33],101%
